Target: mushroom tyrosinase (Agaricus bisporus, UniProt C7FF04)
Experiment: biochemical

Sequence of mushroom tyrosinase (C7FF04 1-392 limits assumed): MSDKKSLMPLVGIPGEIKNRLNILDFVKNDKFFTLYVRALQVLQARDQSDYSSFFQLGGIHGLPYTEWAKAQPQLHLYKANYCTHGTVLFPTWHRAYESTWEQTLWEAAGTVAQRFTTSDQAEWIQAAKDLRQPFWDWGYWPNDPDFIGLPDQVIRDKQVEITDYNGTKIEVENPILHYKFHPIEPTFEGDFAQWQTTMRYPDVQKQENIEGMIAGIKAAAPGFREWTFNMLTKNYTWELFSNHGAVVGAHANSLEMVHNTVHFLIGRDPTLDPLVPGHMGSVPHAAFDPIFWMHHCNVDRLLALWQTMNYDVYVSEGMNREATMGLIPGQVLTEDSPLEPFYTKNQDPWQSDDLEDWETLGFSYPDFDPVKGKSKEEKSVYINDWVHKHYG

Row | SMILES | IC50 [µM]
1 | Nc1ccc(C(=O)Nc2nnc(SCc3cn(Cc4cc(=O)c(O)co4)nn3)s2)cc1 [Compound 6i, 4-amino-N-(5-(((1-((5-hydroxy-4-oxo-4H-pyran-2-yl)methyl)-1H-1,2,3-triazol-4-yl)methyl)thio)-1,3,4-thiadiazol-2-yl)benzamide] | 16.31 ± 0.016
2 | Cc1ccc(C(=O)Nc2nnc(SCc3cn(Cc4cc(=O)c(O)co4)nn3)s2)cc1 [Compound 6d, N-(5-(((1-((5-hydroxy-4-oxo-4H-pyran-2-yl)methyl)-1H-1,2,3-triazol-4-yl)meth-yl)thio)-1,3,4-thiadiazol-2-yl)-4-methylbenzamide] | > 200
3 | COc1ccc(C(=O)Nc2nnc(SCc3cn(Cc4cc(=O)c(O)co4)nn3)s2)cc1 [Compound 6h, N-(5-(((1-((5-hydroxy-4-oxo-4H-pyran-2-yl)methyl)-1H-1,2,3-triazol-4-yl)meth-yl)thio)-1,3,4-thiadiazol-2-yl)-4-methoxybenzamide] | 5.56 ± 0.078
4 | O=C(Cc1ccc(F)cc1)Nc1nnc(SCc2cn(Cc3cc(=O)c(O)co3)nn2)s1 [Compound 6o, 2-(4-fluorophenyl)-N-(5-(((1-((5-hydroxy-4-oxo-4H-pyran-2-yl)methyl)-1H-1,2,3-triazol-4-yl)methyl)thio)-1,3,4-thiadiazol-2-yl)acetamide] | 11.98 ± 0.022
5 | O=C(Cc1ccc(Cl)cc1)Nc1nnc(SCc2cn(Cc3cc(=O)c(O)co3)nn2)s1 [Compound 6m, 2-(4–CHlorophenyl)-N-(5-(((1-((5-hydroxy-4-oxo-4H-pyran-2-yl)methyl)-1H-1,2,3-triazol-4-yl)methyl)thio)-1,3,4-thiadiazol-2-yl)acetamide] | 10.17 ± 0.032
6 | O=C(Nc1nnc(SCc2cn(Cc3cc(=O)c(O)co3)nn2)s1)c1ccc(F)cc1 [Compound 6g, 4-fluoro-N-(5-(((1-((5-hydroxy-4-oxo-4H-pyran-2-yl)methyl)-1H-1,2,3-triazol-4-yl)methyl)thio)-1,3,4-thiadiazol-2-yl)benzamide] | 8.24 ± 0.023
7 | Cc1cccc(C(=O)Nc2nnc(SCc3cn(Cc4cc(=O)c(O)co4)nn3)s2)c1 [Compound 6c, N-(5-(((1-((5-hydroxy-4-oxo-4H-pyran-2-yl)methyl)-1H-1,2,3-triazol-4-yl)meth-yl)thio)-1,3,4-thiadiazol-2-yl)-3-methylbenzamide] | > 200

Results, then the compound that gave them:

Row | IC50 [µM] | SMILES
8 | 2.474 ± 0.023 | O=Cc1cccc(OCc2cn(Cc3cc(=O)c(O)co3)nn2)c1 [Compound 13a, 3-((1-((5-hydroxy-4-oxo-4H-pyran-2-yl)methyl)-1H-1,2,3-triazol-4-yl)methoxy)-benzaldehyde]
9 | 5.961 ± 0.036 | O=Cc1ccc(F)cc1OCc1cn(Cc2cc(=O)c(O)co2)nn1 [Compound 13f, 4-fluoro-2-((1-((5-hydroxy-4-oxo-4H-pyran-2-yl)methyl)-1H-1,2,3-triazol-4-yl)methoxy)benzaldehyde]
10 | 1.517 ± 0.01 | CC(=O)c1ccccc1OCc1cn(Cc2cc(=O)c(O)co2)nn1 [Compound 13k, 2-((4-((2-acetylphenoxy)methyl)-1H-1,2,3-triazol-1-yl)methyl)-5-hydroxy-4H-pyran-4-one]
11 | 4.55 ± 0.062 | O=Cc1ccc(OCc2cn(Cc3cc(=O)c(O)co3)nn2)cc1 [Compound 13c, 4-((1-((5-hydroxy-4-oxo-4H-pyran-2-yl)methyl)-1H-1,2,3-triazol-4-yl)methoxy)benzaldehyde]
12 | 9.908 ± 0.044 | CC(=O)c1ccc(OCc2cn(Cc3cc(=O)c(O)co3)nn2)cc1 [Compound 13d, 2-((4-((4-acetylphenoxy)methyl)-1H-1,2,3-triazol-1-yl)methyl)-5-hydroxy-4H-pyran-4-one]
13 | 4.604 ± 0.046 | CC(=O)c1cccc(OCc2cn(Cc3cc(=O)c(O)co3)nn2)c1 [Compound 13b, 2-((4-((3-acetylphenoxy)methyl)-1H-1,2,3-triazol-1-yl)methyl)-5-hydroxy-4H-pyran-4-one]
14 | 4.571 ± 0.004 | O=Cc1ccc(Cl)cc1OCc1cn(Cc2cc(=O)c(O)co2)nn1 [Compound 13m, 4–CHloro-2-((1-((5-hydroxy-4-oxo-4H-pyran-2-yl)methyl)-1H-1,2,3-triazol-4-yl)methoxy)benzaldehyde]

— PMC12041489 (Scientific Reports, 2025)
